From article PMC2363072, “Oral topotecan: bioavailability and effect of food co-administration” (British Journal of Cancer, 1999)
Where two headings read alike, the source gives them in different places.

How the values were obtained:
clinical [1] = assay type: in vivo, human (patients with solid tumours); conditions: for Urinary excretion: 24 h urine
Text: (§1) Topotecan (Hycamtin) is one of the prototypes of a promising new class of cytotoxic drugs that act through inhibition of topoisomerase I. Topoisomerase I is a nuclear enzyme that relieves the torsional strain in DNA ahead of the moving replication fork (Hsiang et al, 1988, 1989). Inhibition of the enzyme results in lethal DNA damage during transcription and replication. The E-ring lactone in the basic structure of topotecan is considered to be essential for interaction with the topoisomerase I enzyme (Hertzberg et al, 1989; Pommier et al, 1991). […] Prolonged administra- tion increases the probability that tumour cells will be exposed to topotecan during DNA replication, i.e. when they are most suscep- tible. In-vivo in patients there is yet no convincing evidence of a clinically relevant schedule dependency. Intravenous (i.v.) topotecan administered as daily 30-min infu- sions for 5 days has recently received marketing approval for the treatment of patients with ovarian cancer after failure of initial or subsequent platinum-based chemotherapy. An oral gelatin capsule formulation has now been developed (Creemers et al, 1997; Gerrits et al 1998). A phase I study has determined the maximum tolerated dose (MTD) for oral topotecan to be 2.3 mg m-2 for the daily times five dosing schedule (Gerrits et al, 1998). […] In these studies, bioavailability was tested in fasted patients. […] Food can have marked effects on drug absorption by increasing, decreasing, or sometimes simply delaying it. Food can also influence drug metabolism, and certain food components, such as protein and fat, are particularly potent in this respect. For an oral formulation it is therefore essential to investigate the effect of food co-administration on the pharmacokinetics. The aims of the present study were (1) to evaluate the effect of fed and fasted conditions on the bioavailability and pharmaco- kinetics of oral topotecan, and (2) to determine the absolute bioavailability of the gelatin capsule formulation. Oral topotecan: bioavailability and effect of food co-administration VMM Herben1,2 , H Rosing1 , WW ten Bokkel Huinink2 , DM van Zomeren1 , D Batchelor2 , E Doyle3 , FD Beusenberg4 , JH Beijnen1,2 and JHM Schellens2 1 Slotervaart Hospital/The Netherlands Cancer Institute, Department of Pharmacy and Pharmacology, Amsterdam, The Netherlands; 2 Antoni van Leeuwenhoek Hospital/The Netherlands Cancer Institute, Department of Medical Oncology, Amsterdam, The Netherlands; 3 SmithKline Beecham Pharmaceuticals, Department of Drug Metabolism and Pharmacokinetics, Hertfordshire, UK; 4 SmithKline Beecham Farma, Rijswijk, The Netherlands Summary The aims of the study were twofold: (1) to evaluate the effect of food on the relative oral bioavailability of topotecan gelatin capsules in patients with solid tumours, and (2) to determine the absolute bioavailability of oral topotecan with reference to the intravenous (i.v.) formulation. […] On day 1 of the first treatment course patients were administered 2.3 mg m-2 day-1 of oral topotecan with or without a high-fat breakfast. They crossed over to receive the alternate regimen on day 2. In the second course (3 weeks later) fasted patients received topotecan orally (2.3 mg m-2 day-1 ) or i.v. ([…]). They crossed over to receive the alternate regimen on day 2. On days 3-5 of both treatment courses patients received oral topotecan. Plasma pharmacokinetics were performed on days 1 and 2 of the first and second course using a high-performance liquid chromatographic assay. Eighteen patients were enrolled in the study. The ratio of the area under the curve to infinity during fasted and high-fat treatment was 0.93 0.23 (90% confidence interval (CI) 0.83-1.03). Maximal plasma concentrations of topotecan were similar after ingestion of the capsules with (10.6 4.4 ng ml-1 ) or without food (9.2 4.1 ng ml-1 ) (P = 0.130). […]

topoisomerase I = system: topoisomerase I; parameters: method as in Johnson and Wood, personal communication; conditions: ref Johnson and Wood, personal communication; cited from earlier work
[2] = parameters: method as in Gerrits et al, 1998; conditions: oral gelatin capsule, ref Gerrits et al, 1998, cited from earlier work
[3] = parameters: method as in Davies et al, 1995; conditions: dogs, ref Davies et al, 1995; cited from earlier work
clinical [4] = test: clinical; parameters: species or system human (patients with solid tumours); conditions: human, in vivo
Text: as §1

[5] = parameters: method as in Eckardt et al, 1995; Schellens et al, 1996; conditions: i.v. formulation administered orally; fasted patients; ref Eckardt et al, 1995; Schellens et al, 1996; cited from earlier work
[6] = metabolite as total of lactone and carboxylate, corrected for administered topotecan dose
[7] = total of the analyte, plasma, after i.v. topotecan 1.5 mg m-2
[8] = total, corrected for actual administered topotecan dose

In the case of `CC[C@@]1(O)C(=O)OCc2c1cc1n(c2=O)Cc2cc3c(CNC)c(O)ccc3nc2-1` [N-desmethyltopotecan], the “metabolic ratio (metabolite:topotecan AUC ratio)” value (clinical [1]; after i.v. administration) is reported as 4.5%, the “time at which maximal total metabolite plasma levels were reached, median” value (clinical [1]; after ingestion of topotecan capsules) is reported as 4.0 h and the “metabolic ratio (metabolite:topotecan AUC ratio)” value (clinical [1]; after oral administration) is reported as 6.9%. The “time at which maximal total metabolite plasma levels were reached, median” value (clinical [1]; after the start of the i.v. infusion) was 2.1 h, the lactone plasma concentrations (clinical [1]; lactone form of metabolite, lower limit of quantification 0.1 ng ml-1) was “below the detection limit in six patients” and the “oral:i.v. AUC0- (to infinity) ratio” value (clinical [1]; [6]) was 62%. The “oral:i.v. AUC0-t ratio” value (clinical [1]; [6]) was 71%, the Cmax (clinical [1]; plasma, after i.v. topotecan 1.5 mg m-2) was 0.44 ng/mL and the Cmax (clinical [1]; plasma, after oral topotecan 2.3 mg m-2) was 0.34 ng/mL. The t1/2 ratio oral/i.v. (clinical [1]; total) was 1.17, the AUC0-t (clinical [1]; total (lactone + carboxylate) of the analyte, plasma, after oral topotecan 2.3 mg m-2) was 2.7 ng·h/mL and the Urinary excretion (clinical [1]; total of the analyte, % of i.v. topotecan dose) was 0.9%. The Urinary excretion (clinical [1]; total of the analyte, % of oral topotecan dose (topotecan corrected for F)) was 1.1%, the “t1/2 (apparent terminal half-life)” value (clinical [1]; total of the analyte, after i.v. topotecan 1.5 mg m-2) was 6.21 h and the “t1/2 (apparent terminal half-life)” value (clinical [1]; total of the analyte, after oral topotecan 2.3 mg m-2) was 7.25 h. The “AUC0- (area under the curve to infinity)” value (clinical [1]; [7]) was 4.8 ng·h/mL, the AUC0-t (clinical [1]; [7]) was 2.4 ng·h/mL and the “AUC0- (area under the curve to infinity)” value (clinical [1]; total of the analyte, plasma, after oral topotecan 2.3 mg m-2) was 4.6 ng·h/mL. The “AUC0- (to infinity) ratio oral/i.v.” value (clinical [1]; [8]) was 0.62, the AUC0-t ratio oral/i.v. (clinical [1]; [8]) was 0.71 and the Cmax ratio oral/i.v. (clinical [1]; [8]) was 0.51. For the same compound, the “topoisomerase I-inhibiting activity relative to parent compound” value (topoisomerase I) was “slightly less topoisomerase I-inhibiting activity than the parent compound”.

In the case of `CC[C@@]1(O)C(=O)OCc2c1cc1n(c2=O)Cc2cc3c(CN(C)C)c(O)ccc3nc2-1` [topotecan, Topotecan], the “absolute bioavailability (F) using AUC0-t” value (clinical [1]; human, in vivo) is reported as 40%, the bioavailability (clinical [1]; human, in vivo, absolute bioavailability (F)) is reported as 42 ± 13% and the bioavailability (clinical [1]; human, in vivo, bioavailability calculated using only the lactone data) is reported as 38%. The “coefficient of variation of the AUC0- (interpatient variability)” value (clinical [1]; human, in vivo, iv) was 25%, the “lactone:total topotecan AUC0- ratio” value (clinical [1]; human, in vivo, iv) was 0.38 and the “AUC0- (area under the curve to infinity)” value (clinical [1]; human, in vivo, iv, 1.5 mg) was 38.6 ng·h/mL. For the same compound, the “t1/2 (apparent terminal half-life)” value (clinical [1]; human, in vivo, iv, 1.5 mg) was 2.64 h, the Cmax (clinical [1]; human, in vivo, iv, 1.5 mg, Cmax) was 33.9 ng/mL and the “coefficient of variation of the AUC0- (interpatient variability)” value (clinical [1]; human, in vivo, po) was 44%. The “lactone:total topotecan AUC0- ratio” value (clinical [1]; human, in vivo, po) was 0.35, the “AUC0- (area under the curve to infinity)” value (clinical [1]; human, in vivo, po, 2.3 mg) was 22.7 ng·h/mL and the AUC0-t (clinical [1]; human, in vivo, po, 2.3 mg) was 20.4 ng·h/mL. For the same compound, the Cmax (clinical [1]; human, in vivo, po, 2.3 mg, Cmax) was 6.3 ng/mL, the “maximum tolerated dose (MTD)” value ([2]; daily times five dosing schedule) was 2.3 mg m-2 and the “Dose-limiting toxicity (DLT)” value ([2]; daily times five) was “NCI CTC grade 4 neutropenia”. For the same compound, the “part of an absorbed oral dose that enters the blood circulation as the open-ring form” value [3] was “approximately 2.5%”, the “plasma concentration at the pre-dose time point for day 2 (carry-over), mean” value (clinical [4]) was 0.43 ng/mL and the “AUC0- (to infinity) ratio fasted/fed” value (clinical [4]; po, 2.3 mg) was 0.88. The “time needed to reach maximal plasma levels (tmax), median” value (clinical [4]; po, 2.3 mg) was 2.0 h, the AUC0-t (clinical [4]; po, 2.3 mg, AUC0-t) was 19.6 ng·h/mL and the half-life (clinical [4]; po, 2.3 mg, t1/2 (apparent terminal half-life)) was 3.84 h. For the same compound, the Tmax (clinical [4]; po, 2.3 mg, time needed to reach maximal plasma levels (tmax), median) was 3.1 h, the half-life (clinical [4]; total, oral 2.3 mg m-2, fed, read-out: t1/2 (apparent terminal half-life) (converted)) was 3.49 h and the bioavailability [5] was 30-44%.
